This experiment addresses T1, E1 and His-E2 Ubch10 (Homo sapiens, UniProt P22314).
T1 construct: host or cells: E. coli (His-Ubch10); Sf9 insect cells (E1)
T1 sequence (P22314 1-1058): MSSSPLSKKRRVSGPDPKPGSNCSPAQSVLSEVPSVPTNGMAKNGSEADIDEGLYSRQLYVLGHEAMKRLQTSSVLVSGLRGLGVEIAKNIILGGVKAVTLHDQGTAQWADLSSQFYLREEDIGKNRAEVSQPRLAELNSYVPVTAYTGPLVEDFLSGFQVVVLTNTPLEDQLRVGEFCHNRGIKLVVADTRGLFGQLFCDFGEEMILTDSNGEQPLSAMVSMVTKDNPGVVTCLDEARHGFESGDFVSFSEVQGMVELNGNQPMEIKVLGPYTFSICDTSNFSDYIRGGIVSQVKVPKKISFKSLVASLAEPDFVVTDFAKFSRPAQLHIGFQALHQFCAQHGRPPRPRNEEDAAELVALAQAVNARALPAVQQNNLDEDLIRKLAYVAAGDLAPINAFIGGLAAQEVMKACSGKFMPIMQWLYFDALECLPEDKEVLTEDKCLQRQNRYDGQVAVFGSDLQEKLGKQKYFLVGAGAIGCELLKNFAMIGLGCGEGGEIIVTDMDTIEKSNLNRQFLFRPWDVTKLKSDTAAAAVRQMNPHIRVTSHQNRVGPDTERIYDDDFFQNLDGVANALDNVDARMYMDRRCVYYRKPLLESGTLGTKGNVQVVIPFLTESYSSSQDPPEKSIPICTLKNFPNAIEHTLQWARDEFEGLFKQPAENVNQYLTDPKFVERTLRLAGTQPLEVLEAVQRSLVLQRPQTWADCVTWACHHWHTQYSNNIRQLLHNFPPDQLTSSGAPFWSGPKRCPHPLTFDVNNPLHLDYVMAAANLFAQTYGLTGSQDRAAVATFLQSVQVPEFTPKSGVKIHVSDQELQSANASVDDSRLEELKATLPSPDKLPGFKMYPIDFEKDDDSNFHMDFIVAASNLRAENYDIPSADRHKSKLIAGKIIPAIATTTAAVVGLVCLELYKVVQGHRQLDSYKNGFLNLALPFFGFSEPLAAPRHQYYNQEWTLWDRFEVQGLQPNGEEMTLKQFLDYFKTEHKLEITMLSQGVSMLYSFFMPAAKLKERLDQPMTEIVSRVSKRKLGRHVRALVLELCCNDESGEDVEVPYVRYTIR
Briefly: E1 to E2 transfer assay, His-E2 Ubch10, 1.0 μM ATP (low ATP). It counts as biochemical. The settings on record: Table 5, ATP inhibition properties; inhibition measured using IC50 values. An excerpt:
Biological assays for determining the transfer of ubiquitin from the E1 activating agent to the E2 conjugating agent are described in U.S. patent application Ser. Nos. 09/542,497 and 09/826,312 as well as in the PCT Application WO 01/75145, all of which are incorporated by reference in their entirety. The following assay example illustrates one way by which the ubiquitin ligase inhibitory activity of the compounds of the invention can be assayed. This assay example is not meant to limit in any way the use of the compounds of the invention as ubiquitin ligase inhibitors.
The attachment of a ubiquitin moiety to the E2 conjugating agent was assayed using Flag-ubiquitin that was purified from E. coli, E2 Ubch10 that was purified as a His-Ubch10 from E. coli, and E1 that was purified from Sf9 insect cells (Affiniti Research Products, Exeter, U.K.). The wells of a Nickel-substrate 96-well plate (Pierce Chemical) were blocked with 100 μl of 1% casein/phosphate buffered saline (PBS) for 1 hour at room temperature. The blocked Nickel-substrate plate was then washed three times with 200 μl of PBST (0.1% Tween-20 in PBS). Subsequently, Flag-ubiquitin reaction solution was added to each well so that the final concentration was 62.5 mM Tris pH 7.5, […], 0.75 mM DTT, 1.0 μM ATP (low ATP), and 100 ng Flag-ubiquitin. The final reaction solution volume was fixed to 80 μl with Millipore-filtered water. To this was added the following: a ubiquitin agent inhibitor in 10 μl of DMSO, 10 μl of E1 and His-E2 Ubch10 in 20 mM Tris buffer, pH 7.5, and 5% glycerol so that there was 10 ng/well of E1 and 20 ng/well of His-E2 Ubch10. The reaction was then allowed to proceed at room temperature for 1 hour.
After 1 hour, the wells were washed three times with 200 μl of PBST and the amount of E2-ubiquitin complex was measured. For measuring the amount of the E2-ubiquitin complex, 100 μl of Mouse anti-flag diluted 1:10,000 (Sigma Aldrich Fluka Chemicals, St. Louis, Mo.) and anti-mouse HRP diluted 1:15,000 (Jackson Immunoresearch labs, West Grove, Pa.) in PBST were added to each well and allowed to incubate at room temperature for another hour. The wells were then washed three times with 200 μl of PBST and 100 μl of luminol substrate (⅕ dilution) was added. The luminescence of each well was then measured using a […] to calculate the amount of E2-ubiquitin complex. This procedure was repeated using His-E2 Ubch5C instead of His-E2 Ubch10.
The table below illustrates the inhibitory properties of the pharmaceutical compostions of the invention comprising the compounds listed in the table using the assays described above. Inhibition was measured using IC50 values.
Take `COc1ccc2nc(NC(=O)c3ccccc3)sc2c1` [Compound 32, N-(6-methoxybenzo[d]thiazol-2-yl)benzamide]: the UBC10 result is “++ (++ indicates inhibition at 50 μM or or less)”.
For `COc1ccc(-c2ccc(C(=O)Nc3nc4ccc(OC)cc4s3)cc2)cc1` [Compound 33, 4′-methoxy-N-(6-methoxy-1,3-benzothiazol-2-yl)biphenyl-4-carboxamide], the UBC10 result is “++ (++ indicates inhibition at 50 μM or or less)”.
As for `COc1ccc2nc(NC(=O)c3ccc(S(=O)(=O)N4CCCC4)cc3)sc2c1` [Compound 34, N-(6-methoxybenzo[d]thiazol-2-yl)-4-(pyrrolidin-1-ylsulfonyl)benzamide], the UBC10 result is reported as “++ (++ indicates inhibition at 50 μM or or less)”.
On to `COc1ccc2nc(NC(=O)c3ccc(Oc4ccccc4)cc3)sc2c1` [Compound 35, N-(6-methoxybenzo[d]thiazol-2-yl)-4-phenoxybenzamide], for which the UBC10 entry was “−− (−− indicates marginal or no inhibition detected with this assay)”.
With `COc1ccc(C(=O)Nc2nc3ccc(OC)cc3s2)cc1` [Compound 36, 4-methoxy-N-(6-methoxybenzo[d]thiazol-2-yl)benzamide], the UBC10 entry is on record as “++ (++ indicates inhibition at 50 μM or or less)”.
Consider `COc1ccc2nc(NC(=O)C3CCCN3S(=O)(=O)c3ccc(C)cc3)sc2c1` (stereo not shown) [Compound 37, N-(6-methoxybenzo[d]thiazol-2-yl)-1-tosylpyrrolidine-2-carboxamide], for which the UBC10 entry is “−− (−− indicates marginal or no inhibition detected with this assay)”.
For `COc1ccc2nc(NC(=O)C3Cc4ccccc4N3)sc2c1` (stereo not shown) [Compound 38, N-(6-methoxybenzo[d]thiazol-2-yl)indoline-2-carboxamide], the UBC10 entry is on record as “++ (++ indicates inhibition at 50 μM or or less)”.
For `COc1ccc2nc(NC(=O)[C@H]3Cc4ccccc4N3)sc2c1` [Compound 39, (R)-N-(6-methoxybenzo[d]thiazol-2-yl)indoline-2-carboxamide], the UBC10 entry is listed as “++ (++ indicates inhibition at 50 μM or or less)”.
For the compound `COc1ccc2nc(NC(=O)Cc3cc4ccccc4n3C)sc2c1` [Compound 40, N-(6-methoxybenzo[d]thiazol-2-yl)-2-(1-methyl-1H-indol-2-yl)acetamide], the UBC10 result is recorded as “++ (++ indicates inhibition at 50 μM or or less)”.
In the case of `COc1ccc2nc(NC(C)=O)sc2c1` [Compound 41, N-(6-methoxybenzo[d]thiazol-2-yl)acetamide], the UBC10 result is listed as “++ (++ indicates inhibition at 50 μM or or less)”.
Consider `COc1ccc2nc(NC(=O)C34CC5CC(CC(C5)C3)C4)sc2c1` [Compound 42, N-(6-methoxy-1,3-benzothiazol-2-yl)adamantane-1-carboxamide], for which the UBC10 result is “++ (++ indicates inhibition at 50 μM or or less)”.
In the case of `COc1ccc2nc(NC(=O)Cc3ccccc3)sc2c1` [Compound 43, N-(6-methoxybenzo[d]thiazol-2-yl)-2-phenylacetamide], the UBC10 entry is recorded as “−− (−− indicates marginal or no inhibition detected with this assay)”.
For `COc1ccc2nc(NC(=O)C3CCNCC3)sc2c1` [Compound 44, N-(6-methoxybenzo[d]thiazol-2-yl)piperidine-4-carboxamide], the UBC10 result is given as “−− (−− indicates marginal or no inhibition detected with this assay)”.
Take `CCCC1CCC(C(=O)Nc2nc3ccc(OC)cc3s2)CC1` (stereo not shown) [Compound 45, N-(6-methoxybenzo[d]thiazol-2-yl)-4-propylcyclohexanecarboxamide]: the UBC10 result is on record as “++ (++ indicates inhibition at 50 μM or or less)”.
As for `COc1ccc2nc(NC(=O)C3CCC3)sc2c1` [Compound 46, N-(6-methoxybenzo[d]thiazol-2-yl)cyclobutanecarboxamide], the entry is “++ (++ indicates inhibition at 50 μM or or less)”.
Regarding `COc1ccc2nc(NC(=O)C(C)C)sc2c1` [Compound 47, N-(6-methoxybenzo[d]thiazol-2-yl)isobutyramide], the UBC10 entry was “−− (−− indicates marginal or no inhibition detected with this assay)”.
The same measure for `COc1ccc2nc(NC(=O)C(C)(C)C)sc2c1` [Compound 48, N-(6-methoxybenzo[d]thiazol-2-yl)pivalamide]: “++ (++ indicates inhibition at 50 μM or or less)”; for `COc1ccc2nc(NC(=O)c3cccs3)sc2c1` [Compound 49, N-(6-methoxybenzo[d]thiazol-2-yl)thiophene-2-carboxamide]: “++ (++ indicates inhibition at 50 μM or or less)”; for `COc1ccc2nc(NC(=O)c3ccc([N+](=O)[O-])s3)sc2c1` [Compound 50, N-(6-methoxybenzo[d]thiazol-2-yl)-5-nitrothiophene-2-carboxamide]: “−− (−− indicates marginal or no inhibition detected with this assay)”.
For the compound `COc1ccc2nc(N3C(=O)c4ccccc4C3=O)sc2c1` [Compound 51, 2-(6-methoxybenzo[d]thiazol-2-yl)isoindoline-1,3-dione], the UBC10 entry is listed as “++ (++ indicates inhibition at 50 μM or or less)”.
The same measure for `COc1ccc2nc(NC(=O)c3ccncc3)sc2c1` [Compound 52, N-(6-methoxybenzo[d]thiazol-2-yl)isonicotinamide]: “−− (−− indicates marginal or no inhibition detected with this assay)”; for `COc1ccc2nc(NC(=O)c3cccnc3)sc2c1` [Compound 53, N-(6-methoxybenzo[d]thiazol-2-yl)nicotinamide]: “++ (++ indicates inhibition at 50 μM or or less)”; for `COc1ccc2nc(NC(=O)c3cccc([N+](=O)[O-])c3)sc2c1` [Compound 54, N-(6-methoxybenzo[d]thiazol-2-yl)-3-nitrobenzamide]: “−− (−− indicates marginal or no inhibition detected with this assay)”.
The same measure for `COc1ccc2nc(NC(=O)c3cccc4ccccc34)sc2c1` [Compound 55, N-(6-methoxybenzo[d]thiazol-2-yl)-1-naphthamide]: “−− (−− indicates marginal or no inhibition detected with this assay)”; for `COc1ccc2nc(NC(=O)c3cccc(C)c3)sc2c1` [Compound 56, N-(6-methoxybenzo[d]thiazol-2-yl)-3-methylbenzamide]: “++ (++ indicates inhibition at 50 μM or or less)”; for `COc1ccc2nc(NC(=O)c3ccc(F)cc3)sc2c1` [Compound 57, 4-fluoro-N-(6-methoxybenzo[d]thiazol-2-yl)benzamide]: “++ (++ indicates inhibition at 50 μM or or less)”.
Regarding `COc1ccc2nc(NC(=O)c3cccc(F)c3)sc2c1` [Compound 58, 3-fluoro-N-(6-methoxybenzo[d]thiazol-2-yl)benzamide], the UBC10 result is reported as “++ (++ indicates inhibition at 50 μM or or less)”.
As to `COc1ccc2nc(NC(=O)c3ccccc3F)sc2c1` [Compound 59, 2-fluoro-N-(6-methoxybenzo[d]thiazol-2-yl)benzamide], the UBC10 result was “++ (++ indicates inhibition at 50 μM or or less)”.
